Where “and” joins values, the source holds several entries; their conditions need not be identical. Identical values can stand only once.
Tests used:
human 5-HT3A receptors = target: T1, human 5-HT3A receptors (Homo sapiens, UniProt P46098); test: Two-electrode voltage clamp of 5-HT-induced currents in Xenopus oocytes, incl. co-application; assay type: cell-based; details: for use-dependence of inhibition: 3 μM 5-HT applied at 1 min intervals in continued presence of antagonist; for ratio of current amplitudes at +40 mV relative to −40 mV (voltage-dependence): compared with absence of antagonist, Fig. 2E; for Hill slope: concentration-inhibition curve, 1.7 μM 5-HT; for potency at 5-HT3A relative to GABA and glycine receptors: less potent than at GABA and glycine receptors, ref Huang et al., 2004, Hawthorne et al., 2006
T1 construct: expressed in transfected cells; host or cells: Xenopus laevis oocytes (cRNA from pGEMHE)
T1 sequence (P46098 24-478): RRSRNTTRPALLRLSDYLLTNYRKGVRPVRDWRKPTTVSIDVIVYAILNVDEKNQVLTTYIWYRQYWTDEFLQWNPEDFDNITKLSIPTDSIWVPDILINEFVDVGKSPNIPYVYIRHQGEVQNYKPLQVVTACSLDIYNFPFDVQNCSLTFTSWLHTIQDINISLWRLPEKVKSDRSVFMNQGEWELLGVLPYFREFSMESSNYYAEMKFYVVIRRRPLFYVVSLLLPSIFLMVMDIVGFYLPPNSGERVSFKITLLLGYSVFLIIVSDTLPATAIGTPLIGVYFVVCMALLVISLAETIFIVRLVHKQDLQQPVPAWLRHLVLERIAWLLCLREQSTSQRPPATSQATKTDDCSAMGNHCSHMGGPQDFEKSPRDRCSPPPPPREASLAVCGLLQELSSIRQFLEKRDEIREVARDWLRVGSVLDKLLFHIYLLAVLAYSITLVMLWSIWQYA
Experimental: Stage V and VI oocytes were injected with 50 nl of ∼300 ng μl^−1 cRNA, and currents were recorded 1–4 days post-injection. A ratio of 1:3 (A:B) was used for the expression of heteromeric 5-HT3 receptors.
Xenopus laevis oocyte positive females were purchased from NASCO (Fort Atkinson, Wisconsin, USA) and maintained according to standard methods.
Currents were filtered at a frequency of 1 kHz. Micro-electrodes were fabricated from borosilicate glass (GC120TF-10, Harvard Apparatus, Edenbridge, Kent, UK) using a two stage horizontal pull (P-87, Sutter Instrument Company, California, USA) and filled with 3 M KCl. […] Oocytes were perfused with saline at a rate of 15 ml min^−1. Drug application was via a simple gravity fed system calibrated to run at the same rate. Extracellular saline contained (mM), 96 NaCl, 2 KCl, 1 MgCl2 and 5 mM HEPES; adjusted to pH 7.4 with NaOH.
Analysis and curve fitting was performed using Prism V3.02 (GraphPad Software, San Diego, California, USA, www.graphpad.com). Concentration-response data for each oocyte was normalised to the maximum current for that oocyte. For inhibition curves, antagonists were routinely co-applied in the presence of agonist. For PXN, oocytes were also pre-treated with the compound for 20 s. A 2 min wash was used between drug applications. The mean and S.E.M. for a series of oocytes was plotted against agonist or antagonist concentration and iteratively fitted (GraphPad Prism v3.02) to the following Hill equation:(1) IA=Imin+Imax−Imin/1+10^nH(logA50−logA) where A is the concentration of ligand present; IA is the current in the presence of ligand concentration A; Imin is the current when A = 0; Imax is the current when A = ∞ , A50 is the concentration of A which evokes a current equal to (Imax + Imin)/2; and nH is the Hill coefficient. Results are presented as mean ± S.E.M.. Statistical analysis was performed using ANOVA in conjunction with a Dunnett’s post-hoc test.
97) • Scenario 1: Where compounds share a binding site it was assumed that the extent of binding would be determined by a competitive interaction between the compounds such that the proportion of binding sites occupied (Pocc) in the presence of two competing compounds is given by the following expression: (2) Pocc=AKA+BKB/1+AKA+BKB where A and B are the concentrations of two ligands and KA and KB are their affinity constants respectively.
In each individual experiment, for each combination of inhibitors, data values were obtained for IA, IB and IAB. From IA and IB predicted values of IAB1 and IAB2 were also derived. A two-way ANOVA was performed on values of IAB, IAB1 and IAB2 in which the distinction between IAB, IAB1 and IAB2 was treated as a fixed factor and the variation in levels of inhibition between experiments was treated as a random factor. Where the ANOVA indicated a significant difference (P < 0.05) between IAB, IAB1 and IAB2 a post-hoc analysis was carried out using the Waller–Duncan method to identify homogenous subsets with a significance level of 0.05 and a Type I /Type II error ratio if 100.
Our models were based on the following assumptions: 1. that the channel blocking compounds only effect the response that is seen when the channel is open. […] In the case of condition 5 it is possible that the binding of one compound may prevent access of another to its own site. However, in practice this will not influence the analysis since the functional consequence of the binding of both compounds compared to one will be the same, namely complete channel blockade.

mouse 5-HT3A = target: T2, mouse 5-HT3A (Mus musculus, UniProt P23979); test: Granisetron competition binding
T2 construct: expressed in transfected cells
T2 sequence (P23979 24-483 isoform P23979-2 limits assumed): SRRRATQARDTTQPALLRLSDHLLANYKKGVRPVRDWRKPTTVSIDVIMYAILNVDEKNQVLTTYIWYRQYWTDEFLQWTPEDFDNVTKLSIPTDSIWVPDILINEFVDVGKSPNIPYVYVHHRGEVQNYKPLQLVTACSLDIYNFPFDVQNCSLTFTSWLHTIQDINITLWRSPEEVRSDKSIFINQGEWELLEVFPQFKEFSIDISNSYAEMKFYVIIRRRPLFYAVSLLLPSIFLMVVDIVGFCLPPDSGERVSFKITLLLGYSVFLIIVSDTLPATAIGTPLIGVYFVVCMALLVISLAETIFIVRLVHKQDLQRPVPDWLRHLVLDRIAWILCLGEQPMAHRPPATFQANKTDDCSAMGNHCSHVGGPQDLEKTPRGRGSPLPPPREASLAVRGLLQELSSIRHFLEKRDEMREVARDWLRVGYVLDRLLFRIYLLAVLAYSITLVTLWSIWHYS
Experimental: Competition binding (8 point) was performed on at least three separate plates of transfected cells. […] Reactions were incubated for at least 1 h at 4 °C and terminated by vacuum filtration using a Brandel cell harvester onto GF/B filters pre-soaked in 0.3% polyethyleneimine. Radioactivity was determined by scintillation counting using a Beckman BCLS6500 (Fullerton, California, USA). Data were analysed by iterative curve fitting (GraphPad Prism v3.02) according to the equation:(5) BL=Bmin+Bmax−Bmin/1+10^nH(logL50−logL) where L is the concentration of ligand present; BL is the binding in the presence of ligand concentration L; Bmin is the binding when L = 0; Bmax is the binding when L = ∞, L50 is the concentration of L which gives a binding equal to (Bmax + Bmin)/2; and nH is the Hill coefficient. Results are presented as mean ± S.E.M.. Statistical analysis was performed using ANOVA in conjunction with a Dunnett’s post-hoc test.

[1] = GB 300 μM, use-dependency experiment, Fig. 3A

Molecule | IC50 (human 5-HT3A receptors) [µM] | use-dependence of inhibition (human 5-HT3A receptors; GB 300 μM) | current on washout (human 5-HT3A receptors; 6 mM) | ratio of current amplitudes at +40 mV relative to −40 mV (voltage-dependence) (human 5-HT3A receptors) | Hill slope (human 5-HT3A receptors) | potency at 5-HT3A relative to GABA and glycine receptors (human 5-HT3A receptors) [fold] | Displacement of granisetron (0.5 nM) (mouse 5-HT3A; compound 2.5 mM) | Level of inhibition (1 − (I/Imax)) PXN (human 5-HT3A receptors; PXN 5 μM applied alone) | effect on 5-HT concentration-response curves (human 5-HT3A receptors; PXN between 1–50 × IC50) | inhibition at 5 µM (human 5-HT3A receptors; read-out: Level of inhibition (1 − (I/Imax)) PXN, PXN 5 μM applied alone) [%] | Displacement of granisetron (0.5 nM) (mouse 5-HT3A; compound 5 mM) | Level of inhibition (1 − (I/Imax)) GB (human 5-HT3A receptors; GB 11 μM applied alone) | percentage inhibition measured at peak (human 5-HT3A receptors; [1]) [%] | percentage inhibition measured during the first application (human 5-HT3A receptors; [1]) [%] | first 5-HT response as % of the second 5-HT response (recovery) (human 5-HT3A receptors; after 0.3 mM GB) [%]
CC(C)(C)[C@]1(O)CC2OC(=O)CC23C(=O)OC2OC(=O)[C@H](O)C231 (stereo partly drawn) [BB, bilobalide] | 470 | remained stable | transient rebound current was observed | unaltered | 1.48 ± 0.16 | ~100 | not displaced |  |  |  |  |  |  |  | 
C=C(C)[C@@H]1[C@H]2OC(=O)[C@@H]1[C@]1(O)C[C@H]3O[C@]34C(=O)O[C@H]2[C@]14C [PXN, picrotoxinin] | 10.7 | remained stable |  | unaltered | 0.68 ± 0.12 |  |  | 0.35 ± 0.03 | rightwards shifts and a reduction in the maximal current | 48 ± 4 | not displaced |  |  |  | 
ginkgolide B [GB] |  | use-dependent |  | unaltered | 1.10 ± 0.13 | ~100 | not displaced |  |  |  |  | 0.25 ± 0.01 and 0.26 ± 0.05 | 31 ± 3.1 | 38 ± 0.8 | 91 ± 2

From PMC3070799 (Neuropharmacology, 2011)
